# Molecular target: RAC-alpha serine/threonine-protein kinase (Homo sapiens, UniProt P31749)
# Assay: off-target activity on human AKT1 kinase – biochemical, 57K library, IC50, selectivity assay for PKD inhibitor project, dose response (AID 1378)
# Chain of RAC-alpha serine/threonine-protein kinase (P31749 whole entry): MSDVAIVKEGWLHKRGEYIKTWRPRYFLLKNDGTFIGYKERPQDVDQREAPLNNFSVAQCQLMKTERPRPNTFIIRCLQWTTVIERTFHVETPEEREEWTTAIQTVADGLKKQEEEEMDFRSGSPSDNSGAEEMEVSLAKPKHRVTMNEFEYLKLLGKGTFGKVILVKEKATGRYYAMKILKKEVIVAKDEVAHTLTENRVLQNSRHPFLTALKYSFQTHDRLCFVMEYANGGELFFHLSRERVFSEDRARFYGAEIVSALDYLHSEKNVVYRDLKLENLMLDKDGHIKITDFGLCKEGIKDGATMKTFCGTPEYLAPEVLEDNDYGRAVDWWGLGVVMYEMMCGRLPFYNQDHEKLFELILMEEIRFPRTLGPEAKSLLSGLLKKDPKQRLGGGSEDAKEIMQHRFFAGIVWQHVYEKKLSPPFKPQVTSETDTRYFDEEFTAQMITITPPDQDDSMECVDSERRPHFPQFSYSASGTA
row,IC50,SMILES
1,> 100 µM,O=C(NNC1=Nc2cccc3cccc1c23)c1ccc(Br)cc1 [SMR000260645]
2,> 100 µM,COc1ccc(CNC(=O)C2Cc3ccccc3CN2C(=O)c2ccco2)cc1 (stereo not drawn) [SMR000343177]
3,> 100 µM,O=[N+]([O-])c1ccc(Nc2c3ccccc3nc3ccccc23)cc1 [MLS000723809]
4,> 100 µM,COc1ccc(Cn2c(=O)[nH]c3cc(C(=O)NC4CCCC4)ccc3c2=O)cc1 [MLS000730065]
5,> 100 µM,O=C(Nc1ccccc1C(=O)N1CCCC1)C1COc2ccccc2O1 (stereo not drawn) [SMR000287780]
6,> 100 µM,COC(=O)c1c(NC(=O)C2C3CCC(C3)C2C(=O)O)sc2c1CCCCC2 (stereo not drawn) [SMR000298221]

# The remaining lines, values behind:
row,SMILES,IC50
1,Cn1cccc1C(=O)NC(=O)COC(=O)c1cc(S(=O)(=O)N2CCCCC2)ccc1Cl [[2-[(1-methylpyrrol-2-yl)carbonylamino]-2-oxidanylidene-ethyl] 2-chloranyl-5-piperidin-1-ylsulfonyl-benzoate],> 100 µM
2,O=C(CSc1ccncc1)Nc1ccc2ccccc2c1 [N-naphthalen-2-yl-2-pyridin-4-ylsulfanylacetamide],> 100 µM
3,"Cc1cc(NC(=O)CCC(=O)N(Cc2ccco2)C(C(=O)NCC2CCCO2)c2ccncc2)no1 (stereo not drawn) [N'-(furan-2-ylmethyl)-N-(5-methyl-1,2-oxazol-3-yl)-N'-[2-oxidanylidene-2-(oxolan-2-ylmethylamino)-1-pyridin-4-yl-ethyl]butanediamide]",> 100 µM
4,"O=C1CSCN1c1cc(Cl)ccc1Cl [3-(2,5-dichlorophenyl)-1,3-thiazolan-4-one]",> 100 µM
5,"Cc1c(C#N)c(N)nc(Cl)c1C#N [2-amino-6-chloro-4-methyl-3,5-pyridinedicarbonitrile]",> 100 µM
6,"CCOC(=O)c1sc(=NC(=O)CCS(=O)(=O)c2ccccc2)n(C)c1C [2-[3-(benzenesulfonyl)-1-oxopropyl]imino-3,4-dimethyl-5-thiazolecarboxylic acid ethyl ester]",> 100 µM
7,"CC1Cc2ccccc2N1c1ncnc(N)c1[N+](=O)[O-] (stereo not drawn) [6-(2-methyl-2,3-dihydro-1H-indol-1-yl)-5-nitro-4-pyrimidinamine]",> 100 µM
8,O=C(O)c1cc(C(=O)C2CCCCC2)c[nH]1 [4-(cyclohexylcarbonyl)-1H-pyrrole-2-carboxylic acid],> 100 µM
9,"CCCc1cc(=O)[nH]c(SCCCCN2C(=O)c3ccccc3C2=O)n1 [2-[4-[(4-oxidanylidene-6-propyl-1H-pyrimidin-2-yl)sulfanyl]butyl]isoindole-1,3-dione]",> 100 µM
10,"CC(N=Nc1ncc(Cl)cc1Cl)c1ccccn1 (stereo not drawn) [3,5-dichloro-N-(1-pyridin-2-ylethylideneamino)pyridin-2-amine]",> 100 µM
11,"O=C(CSc1ccc2nnc(-c3cccnc3)n2n1)c1ccccc1 [1-phenyl-2-[[3-(3-pyridinyl)-[1,2,4]triazolo[4,3-b]pyridazin-6-yl]thio]ethanone]",> 100 µM
12,CSc1ccccc1C(=O)NCc1ccc(F)cc1,> 100 µM

# Source: BindingDB's records for doi:10.7270/Q2JM282R (University of Pittsburgh, 2008)
